# Legend:
# [1] = tested on: Botrytis cinerea; test: Fungicidal activity against benzimidazole-resistant Botryotinia fuckeliana after 48 hr by poisoned food technique; assay type: functional, organism-based
# [2] = tested on: Botrytis cinerea; test: Fungicidal activity against benzimidazole-resistant Botryotinia fuckeliana at 6.2 ppm after 48 hr by poisoned food technique; assay type: functional
# [3] = tested on: Botrytis cinerea; test: Fungicidal activity against benzimidazole-resistant Botryotinia fuckeliana at 200 ppm after 48 hr by poisoned food technique; assay type: functional
# [4] = tested on: Botrytis cinerea; test: Fungicidal activity against benzimidazole-resistant Botryotinia fuckeliana infected kidney bean leaf at 100 ppm after 7 days in greenhouse conditions by detached leaf test; assay type: functional
# [5] = 1-octanol/water distribution coefficient, log P of the compound; assay type: physicochemical
# [6] = tested on: Phaseolus vulgaris; test: Phytotoxicity against Phaseolus vulgaris (kidney bean) assessed as necrosis of leaf at 100 ppm after 7 days in greenhouse conditions; assay type: organism-based; conditions: in vivo, 168 h
# [7] = tested on: Botrytis cinerea; test: Fungicidal activity against benzimidazole-resistant Botryotinia fuckeliana at 25 ppm after 48 hr by poisoned food technique; assay type: functional
# [8] = tested on: Botrytis cinerea; test: Fungicidal activity against benzimidazole-sensitive Botryotinia fuckeliana after 48 hr by poisoned food technique; assay type: functional, organism-based
# [9] = tested on: Botrytis cinerea; test: Resistance ratio of EC50 for benzimidazole-resistant Botryotinia fuckeliana to EC50 for benzimidazole-sensitive Botryotinia fuckeliana; assay type: functional
# [10] = tested on: Botrytis cinerea; test: Ratio of DMPF EC50 to compound EC50 for benzimidazole-resistant Botryotinia fuckeliana; assay type: functional
# [11] = Botrytis cinerea, 48 h, read-out: pEC50 (converted)
SMILES,"EC50 [1, 11]",Activity [2],Activity [3],Activity [4],logP [5],Activity [6],Activity [7],EC50 [1],EC50 [8],Ratio EC50 [9],Ratio EC50 [10]
CCO/N=C/Nc1cc(Cl)cc(Cl)c1,12 µM,<25%,100%,<25%,3,<= 10%,26%,,,,
CO/N=C/Nc1cc(Cl)cc(Cl)c1,,,,,,,,3 ppm,50 ppm,10000,
C#CCc1c(Cl)cc(N/C=N/OC)cc1Cl,0.0182 µM,,,,3.3,Non-toxic,,0.005 ppm,30 ppm,10,600
"CCO/N=C/Nc1cc(Cl)c(Cl)c(Cl)c1 [N'-ETHOXY-N-(3,4,5-TRICHLOROPHENYL)FORMIMIDAMIDE]",,<25%,26%,<25%,,Non-toxic,<25%,,,,
"CCO/N=C/Nc1cc(OCC)c(OCC)c(OCC)c1 [N'-ETHOXY-N-(3,4,5-TRIETHOXYPHENYL)FORMIMIDAMIDE]",,<25%,100%,<25%,,Non-toxic,26%,,,,
CCO/N=C/Nc1ccc(OCC)cc1C [N'-ETHOXY-N-(4-ETHOXY-2-METHYLPHENYL)FORMIMIDAMIDE],,<25%,<25%,<25%,,<= 10%,<25%,,,,
"CCO/N=C/Nc1cc(C)c(OCC)c(C)c1 [N'-ETHOXY-N-(4-ETHOXY-3,5-DIMETHYLPHENYL)FORMIMIDAMIDE]",,50%,100%,50%,,<= 10%,100%,,,,
CCO/N=C/Nc1ccc(OCC)c(C)c1 [N'-ETHOXY-N-(4-ETHOXY-3-METHYLPHENYL)FORMIMIDAMIDE],,<25%,100%,<25%,,11%,<25%,,,,
"CCO/N=C/Nc1cc(C)c(OCC)c(OCC)c1 [N-(3,4-DIETHOXY-5-METHYLPHENYL)-N'-ETHOXYFORMIMIDAMIDE]",,100%,100%,70%,,Non-toxic,100%,,,,
"CCO/N=C/Nc1cc(Cl)cc(Cl)c1OCC [N-(3,5-DICHLORO-2-ETHOXYPHENYL)-N'-ETHOXYFORMIMIDAMIDE]",,70%,100%,<25%,,Non-toxic,90%,,,,
"CCO/N=C/Nc1cc(Cl)c(OCC)c(Cl)c1 [N-(3,5-DICHLORO-4-ETHOXYPHENYL)-N'-ETHOXYFORMIMIDAMIDE]",,90%,100%,100%,,Non-toxic,100%,,,,
"CCO/N=C/Nc1cc(Cl)c(C)c(Cl)c1 [N-(3,5-DICHLORO-4-METHYLPHENYL)-N'-ETHOXYFORMIMIDAMIDE]",,<25%,<25%,<25%,,Non-toxic,<25%,,,,
"CCO/N=C/Nc1cc(Cl)c(OCC)c(OCC)c1 [N-(3-CHLORO-4,5-DIETHOXYPHENYL)-N'-ETHOXYFORMIMIDAMIDE]",,100%,100%,100%,,Non-toxic,100%,,,,
CCO/N=C/Nc1ccc(OCC)c(Cl)c1 [N-(3-CHLORO-4-ETHOXYPHENYL)-N'-ETHOXYFORMIMIDAMIDE],,<25%,100%,<25%,,Non-toxic,26%,,,,
CCO/N=C/Nc1ccc(C)c(Cl)c1 [N-(3-CHLORO-4-METHYLPHENYL)-N'-ETHOXYFORMIMIDAMIDE],,<25%,100%,<25%,,<= 10%,26%,,,,
CCO/N=C/Nc1ccc(Cl)cc1C [N-(4-CHLORO-2-METHYLPHENYL)-N'-ETHOXYFORMIMIDAMIDE],,<25%,70%,<25%,,11%,<25%,,,,
CCO/N=C/Nc1cc(Cl)ccc1OCC [N-(5-CHLORO-2-ETHOXYPHENYL)-N'-ETHOXYFORMIMIDAMIDE],,<25%,100%,<25%,,<= 10%,100%,,,,
